Experimental data reported in US20110280940A1, “Di-Vanilloyl And Tri-Vanilloyl Derivatives For Use In Anti-Cancer Therapy” (priority 2008, published 2011).
Blank lines part the entries; values can stand above or below the compound they belong to.

Experiments:
[1] = test system: PC-3 prostate cancer cells; experiment: MTT colorimetric assay, overall cell growth, PC-3; assay type: cell-based, human; conditions: Homo sapiens, 72 hours of incubation, read-out: In Vitro IC50 Growth Inhibitory Values, PC-3
Procedure, shortened: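 Seed cells in their own medium and incubate 24 h at 37 °C. Replace medium with compound-containing medium (10^-8 to 10^-4 M) and incubate 72 h.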

CDK5/p25 = biological target: T1, CDK5/p25 (Homo sapiens, UniProt Q00535); experiment: Kinase activity assay, CDK5; assay type: biochemical; conditions: 10 μM, 1% DMSO, 15 μM ATP; residual activity
T1 construct: made in house
T1 sequence (Q00535 whole entry): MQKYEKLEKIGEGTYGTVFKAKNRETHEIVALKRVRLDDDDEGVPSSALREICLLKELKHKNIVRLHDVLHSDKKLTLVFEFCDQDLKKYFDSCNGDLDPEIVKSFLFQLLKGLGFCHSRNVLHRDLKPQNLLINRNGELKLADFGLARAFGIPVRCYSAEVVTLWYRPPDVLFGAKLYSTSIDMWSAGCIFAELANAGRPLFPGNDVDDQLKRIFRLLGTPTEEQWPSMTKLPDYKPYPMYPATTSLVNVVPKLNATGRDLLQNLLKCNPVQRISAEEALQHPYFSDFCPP
T1 sequence (Q15078 99-307 partner limits assumed): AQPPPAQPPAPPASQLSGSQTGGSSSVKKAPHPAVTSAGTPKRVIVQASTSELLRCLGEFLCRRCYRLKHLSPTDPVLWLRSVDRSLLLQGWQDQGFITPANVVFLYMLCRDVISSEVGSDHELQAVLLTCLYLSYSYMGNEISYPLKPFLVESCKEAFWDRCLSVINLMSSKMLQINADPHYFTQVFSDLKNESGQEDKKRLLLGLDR
Method: (§1) Buffer A: 10 mM MgCl2, 1 mM EGTA, 1 mM DTT, 25 mM Tris-HCl pH 7.5, 50 μg heparin/ml. Buffer C: 60 mM β-glycerophosphate, 15 mM p-nitrophenylphosphate, 25 mM Mops (pH 7.2), 5 mM EGTA, 15 mM MgCl2, 1 mM DTT, 1 mM sodium vanadate, 1 mM phenyl phosphate.
(§2) Kinase activities were assayed in Buffer A or C, at 30° C., at a final ATP concentration of 15 μM. Blank values were subtracted and activities expressed in % of the maximal activity, i.e. in the absence of inhibitors. Controls were performed with appropriate dilutions of DMSO.
(§3) CDK1/cyclin B (M phase starfish oocytes, native), CDK2/cyclin A, CDK2/cyclin E, CDK5/p25 and CDK7/cyclin H (human, recombinant) were prepared as previously described (Leclerc et al., 2001, J. Biol. Chem. 2001, 276, 251-260; Bach et al., 2005, J Biol Chem 280: 31208-31219). Their kinase activity was assayed in buffer C, with 1 mg histone H1/ml, in the presence of 15 μM [gamma-^33P] ATP (3,000 Ci/mmol; 10 mCi/ml) in a final volume of 30 μl. After 30 min incubation at 30° C., 25 μl aliquots of supernatant were spotted onto 2.5×3 cm pieces of Whatman P81 phosphocellulose paper, and, 20 sec later, the filters were washed five times (for at least 5 min each time) in a solution of 10 ml phosphoric acid/liter of water. The wet filters were counted in the presence of 1 ml ACS (Amersham) scintillation fluid.

Erk2 = Erk2 (Rattus norvegicus, UniProt P63086); experiment: Kinase activity assay, Erk2; assay type: biochemical; conditions: 10 μM, 1% DMSO, 15 μM ATP; residual activity
Erk2, sequence (P63086 whole entry): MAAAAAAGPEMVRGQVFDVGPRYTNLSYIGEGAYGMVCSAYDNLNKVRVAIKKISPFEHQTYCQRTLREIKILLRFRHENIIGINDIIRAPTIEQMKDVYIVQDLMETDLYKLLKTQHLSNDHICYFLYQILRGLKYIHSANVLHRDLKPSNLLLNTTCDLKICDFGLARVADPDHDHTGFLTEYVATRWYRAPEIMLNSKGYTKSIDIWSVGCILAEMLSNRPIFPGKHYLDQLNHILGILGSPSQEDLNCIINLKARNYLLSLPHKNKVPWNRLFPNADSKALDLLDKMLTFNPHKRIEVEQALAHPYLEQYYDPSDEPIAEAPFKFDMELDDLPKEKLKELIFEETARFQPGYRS
Method: as §1, §2
Erk2 (rat, recombinant) was assayed as described for CDK1 but using the specific substrate Ets1 (amino acids 1-138) in buffer A.

CK1 = experiment: Kinase activity assay, CK1; assay type: biochemical, porcine; conditions: 10 μM, 1% DMSO, 15 μM ATP; residual activity
Method: as §1, §2
CK1 (porcine brain, native) was assayed as described for CDK1 but using the CK1-specific peptide substrate […]pSAYSITA (Seq. ID NO 2) (Reinhardt et al., 2007, Protein Expr. & Purif. 54, 101-109), obtained from Millegen (Labege, France).

DYRK1A = DYRK1A (Rattus norvegicus, UniProt Q63470); experiment: Kinase activity assay, DYRK1A (GST fusion, myelin basic protein substrate); assay type: biochemical
Method: as §1, §2
DYRK1A (rat, recombinant, expressed in E. coli as a GST fusion protein) was purified by affinity chromatography on glutathione-agarose and assayed as described for CDK1/cyclin B using myelin basic protein (1 mg/ml) as a substrate.

CDK2/cyclin A = biological target: T2, CDK2/cyclin A (Homo sapiens, UniProt P24941); experiment: Kinase activity assay, CDK2A; assay type: biochemical; conditions: 10 μM, 1% DMSO, 15 μM ATP; residual activity
T2 construct: made in house
Method: as §1, §2, §3

- IC50 [1]: > 1000 µM
SMILES: COc1cc(C(=O)O)ccc1O [vanillic acid, reference compound]

SMILES: COc1cc(C(=O)OCCOC(=O)c2ccc(O)c(OC)c2)ccc1O [DLT1, Ethane-1,2-diyl bis-(4-hydroxy-3-methoxybenzoate)]
- % ENZYMATIC ACTIVITY, CDK5 (CDK5/p25): 87%
- % ENZYMATIC ACTIVITY, Erk2 (Erk2): 99%
- % ENZYMATIC ACTIVITY, Ckone (CK1): 62%
- inhibition at 10 µM (DYRK1A): 51%
- % ENZYMATIC ACTIVITY, Dyrk1A (DYRK1A; 10 μM, 1% DMSO, 15 μM ATP, residual activity): 49%
- % ENZYMATIC ACTIVITY, CDK2A (CDK2/cyclin A): 91%
